Experimental findings from ChEMBL document CHEMBL1147999, “Caffeoylglycolic and caffeoylamino acid derivatives, halfmers of L-chicoric acid, as new HIV-1 integrase inhibitors” (Eur J Med Chem, 2007) are described below.

Active and inactive are the calls of the source. The rule behind the calls is not given here.

One experiment deals with Human immunodeficiency virus type 1 integrase (Human immunodeficiency virus 1, UniProt Q7ZJM1). As to the kind of experiment: Inhibition of recombinant HIV1 integrase expressed in Escherichia coli.
Chain of Human immunodeficiency virus type 1 integrase (Q7ZJM1 whole entry): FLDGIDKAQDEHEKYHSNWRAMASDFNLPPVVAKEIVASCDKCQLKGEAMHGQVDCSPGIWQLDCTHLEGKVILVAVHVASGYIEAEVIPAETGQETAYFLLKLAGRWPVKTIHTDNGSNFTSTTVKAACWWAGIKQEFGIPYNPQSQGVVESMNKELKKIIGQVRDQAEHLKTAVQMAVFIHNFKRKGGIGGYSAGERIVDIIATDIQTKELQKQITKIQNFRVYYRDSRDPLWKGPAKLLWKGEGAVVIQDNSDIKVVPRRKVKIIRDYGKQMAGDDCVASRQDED
Conditions: not given
For orientation: IC50 means the midpoint of a concentration-inhibition curve. In the case of `COc1cc(/C=C/C(=O)OCC(=O)O)ccc1O`, the IC50 was over 300 µM. With `O=C(/C=C/c1ccc(O)c(O)c1)NC(Cc1ccccc1)C(=O)O` (centres undefined), the IC50 is 95 µM. Regarding `O=C(O)CNC(=O)/C=C/c1ccc(O)c(O)c1`, the IC50 was found to be 172 µM. The same measure, in the same setting: the figure for `CC(NC(=O)/C=C/c1ccc(O)c(O)c1)C(=O)O` (centres undefined) is 148 µM. On to `O=C(/C=C/c1ccc(O)c(O)c1)NC(Cc1ccc(O)cc1)C(=O)O` (centres undefined), for which the IC50 is 129 µM.

For the compound `O=C(O)COC(=O)/C=C/c1ccc(O)c(O)c1`, the IC50 came to 10.5 µM. Turning to `O=C(/C=C/c1ccc(O)c(O)c1)NC(Cc1ccc(O)c(O)c1)C(=O)O` (centres undefined), the IC50 worked out at 12 µM.

Regarding `COc1ccc(/C=C/C(=O)OCC(=O)O)cc1OC`, the IC50 was over 300 µM. On to `CC(C)CC(NC(=O)/C=C/c1ccc(O)c(O)c1)C(=O)O` (centres undefined), for which the IC50 worked out at 130 µM.

For `CC(OC(=O)/C=C/c1ccc(O)c(O)c1)C(=O)O` (centres undefined), the IC50 was 128 µM.

In the next experiment the test system is Human immunodeficiency virus 1. In words: Antiviral activity against HIV1 3B in MT4 cells at 200 uM. The class given is functional, organism-based.
Conditions: not given
With `O=C(/C=C/c1ccc(O)c(O)c1)NC(Cc1ccc(O)c(O)c1)C(=O)O` (centres undefined), the outcome was inactive.

As to `CC(OC(=O)/C=C/c1ccc(O)c(O)c1)C(=O)O` (centres undefined), the result was inactive.

The experiment is the same for the next values; noted with them: Human immunodeficiency virus 1, 3B.
One may read the CC50 as the concentration at which the toxic effect on the cells reaches its halfway point. Read a low CC50 as harm at low concentration. As usually defined, the EC50 is the concentration giving half of the maximal effect. Low readings indicate an effect from little substance, high ones a need for much substance. Regarding `O=C(/C=C/c1ccc(O)c(O)c1)O[C@H](C(=O)O)[C@@H](OC(=O)/C=C/c1ccc(O)c(O)c1)C(=O)O`, the cytotoxic concentration (CC50) is over 42.2 µM and the EC50 came to 7.5 µM.
